Data: PMC5036131, “Fragment-based discovery of a new family of non-peptidic small-molecule cyclophilin inhibitors with potent antiviral activities” (Nature Communications, 2016)

Key:
[1] = target: T1, CYP2B6 (Homo sapiens, UniProt P20813); assay: Metabolism by recombinant human cytochrome P450, CYP2B6; format: in vitro ADME; settings: recombinant enzyme
T1 sequence (P20813 1-491): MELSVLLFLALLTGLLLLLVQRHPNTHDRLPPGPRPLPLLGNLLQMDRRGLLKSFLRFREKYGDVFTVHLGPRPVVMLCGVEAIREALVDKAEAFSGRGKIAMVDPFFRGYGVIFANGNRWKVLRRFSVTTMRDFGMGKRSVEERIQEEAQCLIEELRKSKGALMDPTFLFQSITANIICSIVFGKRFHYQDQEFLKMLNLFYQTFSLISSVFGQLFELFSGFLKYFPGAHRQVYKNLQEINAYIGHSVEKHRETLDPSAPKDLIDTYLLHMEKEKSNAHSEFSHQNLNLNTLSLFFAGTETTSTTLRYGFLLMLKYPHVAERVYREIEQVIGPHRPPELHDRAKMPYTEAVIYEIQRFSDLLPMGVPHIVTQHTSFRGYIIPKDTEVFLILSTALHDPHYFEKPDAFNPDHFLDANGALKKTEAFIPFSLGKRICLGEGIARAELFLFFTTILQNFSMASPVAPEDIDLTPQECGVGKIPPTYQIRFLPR
Procedure: (§1) […] of compound was incubated with individual bacterially expressed recombinant human cytochromes P450 co-expressed with human NADPH cytochrome P450 reductase. […] Enzyme-selective positive control substrates were tested in parallel.

[2] = target: CYP2C19 (Homo sapiens, UniProt P33261); assay: Cytochrome P450 enzyme inhibition assay, CYP2C19; format: in vitro ADME; parameters: incubated with human hepatic microsomal fractions and NADPH; from tissue; host or cells: human hepatic microsomal fractions; settings: human hepatic microsomal fractions, up to 25 μM
Sequence of CYP2C19 (P33261 whole entry): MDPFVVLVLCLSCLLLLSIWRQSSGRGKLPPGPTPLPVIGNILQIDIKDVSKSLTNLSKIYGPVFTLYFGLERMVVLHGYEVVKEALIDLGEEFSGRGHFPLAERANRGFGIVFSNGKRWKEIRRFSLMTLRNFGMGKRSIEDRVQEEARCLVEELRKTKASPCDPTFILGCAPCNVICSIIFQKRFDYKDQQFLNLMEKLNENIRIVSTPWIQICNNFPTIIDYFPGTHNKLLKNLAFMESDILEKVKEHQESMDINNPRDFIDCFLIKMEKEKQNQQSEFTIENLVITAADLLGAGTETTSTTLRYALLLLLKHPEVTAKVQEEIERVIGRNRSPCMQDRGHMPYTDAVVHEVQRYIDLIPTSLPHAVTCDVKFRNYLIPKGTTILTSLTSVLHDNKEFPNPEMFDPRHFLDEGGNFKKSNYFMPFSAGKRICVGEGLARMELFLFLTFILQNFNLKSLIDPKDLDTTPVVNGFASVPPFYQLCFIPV
Procedure: (§2) Up to 25 μM of compounds 29 and 30 was incubated with human hepatic microsomal fractions and NADPH in the presence of individual probe substrates. All assays were designed so that conditions were linear with respect to time and protein concentration. Substrates were present at concentrations equal to or lower than their respective Km values. Enzyme selective products were determined by fluorometry (ethoxyresorufin O-deethylase) or by specific LC-MS/MS assays. Relative enzyme activities were determined by comparison with those assayed with DMSO vehicle instead of inhibitor. IC50 values were calculated by nonlinear curve fitting using a sigmoidal model. Positive control inhibitors for each enzyme were tested in parallel.

[3] = LogD determination by reverse-phase HPLC; format: physicochemical; settings: octanol/water, pH 7.4
Procedure: The octanol/water partitioning (LogD) values of compounds were determined from their retention times during reverse-phase HPLC at pH 7.4 with diode array ultraviolet/visible detection. The LogD values were obtained by interpolation within a standard curve (range LogD: 0.3–5.7) generated with seven standards, with LogD values previously determined using the shake-flask method.

[4] = target: CYP2D6 (Homo sapiens, UniProt P10635); assay: Cytochrome P450 enzyme inhibition assay, CYP2D6; format: in vitro ADME; parameters: incubated with human hepatic microsomal fractions and NADPH; from tissue; host or cells: human hepatic microsomal fractions; settings: human hepatic microsomal fractions, up to 25 μM
Sequence of CYP2D6 (P10635 whole entry): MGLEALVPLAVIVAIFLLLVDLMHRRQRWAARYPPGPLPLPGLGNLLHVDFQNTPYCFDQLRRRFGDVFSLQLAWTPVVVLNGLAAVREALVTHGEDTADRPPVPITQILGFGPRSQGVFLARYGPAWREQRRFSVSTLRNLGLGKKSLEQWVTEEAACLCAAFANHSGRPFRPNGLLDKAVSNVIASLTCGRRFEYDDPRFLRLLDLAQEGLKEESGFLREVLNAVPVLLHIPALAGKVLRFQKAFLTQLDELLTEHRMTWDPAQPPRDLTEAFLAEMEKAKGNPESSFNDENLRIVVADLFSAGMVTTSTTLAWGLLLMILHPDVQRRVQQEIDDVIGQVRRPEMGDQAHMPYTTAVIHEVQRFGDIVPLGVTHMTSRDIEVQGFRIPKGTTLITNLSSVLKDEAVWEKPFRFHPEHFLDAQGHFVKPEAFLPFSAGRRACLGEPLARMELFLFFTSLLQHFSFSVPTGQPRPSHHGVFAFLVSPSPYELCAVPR
Procedure: as §2

[5] = target: T2, CYP2C8 (Homo sapiens, UniProt P10632); assay: Metabolism by recombinant human cytochrome P450, CYP2C8; format: in vitro ADME; settings: recombinant enzyme
T2 sequence (P10632 1-490): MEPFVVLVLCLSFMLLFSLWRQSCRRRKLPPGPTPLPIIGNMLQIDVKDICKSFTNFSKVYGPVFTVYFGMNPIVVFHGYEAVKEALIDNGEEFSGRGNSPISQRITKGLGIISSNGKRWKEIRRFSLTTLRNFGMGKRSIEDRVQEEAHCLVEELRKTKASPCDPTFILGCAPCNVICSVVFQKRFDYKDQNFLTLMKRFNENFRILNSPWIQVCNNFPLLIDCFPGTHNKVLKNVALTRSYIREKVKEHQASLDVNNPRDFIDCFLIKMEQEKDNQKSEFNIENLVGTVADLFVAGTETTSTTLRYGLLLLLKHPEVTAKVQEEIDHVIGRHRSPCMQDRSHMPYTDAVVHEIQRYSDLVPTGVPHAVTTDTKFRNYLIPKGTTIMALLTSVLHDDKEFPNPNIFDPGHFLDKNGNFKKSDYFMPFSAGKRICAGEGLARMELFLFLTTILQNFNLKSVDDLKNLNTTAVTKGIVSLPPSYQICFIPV
Procedure: as §1

CSCCC(NC(=O)NCc1ccc(N)cc1)C(=O)N1CCCC1c1ccccc1SC.O=C(O)C(F)(F)F (centres unmarked) [Compound 30]
Rate of metabolism by human cytochrome P450 CYP2B6 [1]: < 0.12 pmol/pmol P450/min | Rate of metabolism by human cytochrome P450 CYP2B6 ([1]; listed as compound 30): Neither compound 29 nor compound 30 was metabolized | IC50 [2]: > 25 µM | Inhibition of cytochrome P450 activity, IC50 CYP2C19 [2]: Neither compound 29 nor compound 30 significantly inhibited | LogD [3]: 2.6 | Inhibition of cytochrome P450 activity, IC50 CYD2D6 [4]: Neither compound 29 nor compound 30 significantly inhibited | IC50 ([4]; read-out: Inhibition of cytochrome P450 activity, IC50 CYD2D6): > 25 µM | Rate of metabolism by human cytochrome P450 CYP2C8 [5]: 0.56 pmol/pmol P450/min
